Patent US20220334127A1, “IN VITRO METHOD FOR OBTAINING CLINICAL DATA IN PATIENTS SUFFERING FROM AN INFLAMMATORY DISEASE” (FUNDACIÓN PARA LA FORMACIÓN E INVESTIGACIÓN SANITARIAS DE …, priority 2019, published 2022)

Key:
P2X7 receptor = experiment: Electron microscopy of mitochondria after ATP; type: cell-based
NLRP3 inflammasome = experiment: IL-1β release from BMDMs pre-treated, washed, LPS-primed and stimulated with nigericin; type: cell-based, mouse; details: P2X7-receptor-deficient macrophages (FIG. 6c)
Experimental: FIG. 6. P2X7 receptor stimulation induces an impairment of the NLRP3 inflammasome in monocytes. (a-b) Percentage of monocytes with ASC-specks (a) and release of […] from PBMCs (b) isolated from healthy donor blood samples treated with ATP (3 mM, 30 min; ATP-pre), then washed and primed with or without LPS (1 μg/ml, 2 h) and then treated for 20 min with ATP (3 mM; ATP-post) or nigericin (10 μM) as indicated. (c) IL-1β release from wild type or P2rx7^−/− BMDMs treated as in a, but with 4 h LPS priming and 30 min of ATP or nigericin. (d) IL-1β release from wild type or P2rx7^−/− BMDMs treated for 30 min with antimycin A (5 μM) or FCCP (1 μM) and then washed and primed with LPS (1 μg/ml, 4 h) and then stimulated with nigericin (10 μM, 30 min) as indicated. (e) Expression of Nrlp3 and Illb genes analyzed by quantitative PCR from wild type or P2rx7^−/− BMDMs treated with ATP (3 mM, 30 min; ATP-pre), then washed and primed with or without LPS (100 ng/ml, 4 h). (f) Kaplan-Meier representation of wild type (top) or P2rx7^−/− (bottom) mice survival after sham operation (dotted line), or CLP operation (continuous line); some mice groups were i.p. injected with ATP (0.5 mg/g) 30 min before operation (dashed lines). Wild type CLP n=10, CLP+ATP n=8, sham n=4, sham+ATP n=4; P2rx7^−/− CLP n=4, CLP+ATP n=6, sham n=3. (g) IL-1β from peritoneal lavage (left) or bacterial load in blood (right) from wild type sham, CLP or CLP+ATP mice after 24 h. Each dot represents a single independent experiment (c,d), a sample from an individual healthy donor (a,b,e) or a single mouse (g); average±standard error is represented in panels a-e,g; *p<0.05; **p<0.01; ns, no significant difference (p>0.05); Mann-Whitney test was used for a,b,d,e; Kruskal-Wallis test was used for c; Long-rank test for f.
FIG. 7. Mitochondrial dysfunction mediates P2X7 receptor induced NLRP3 inflammasome impairment. (a) Mitochondrial membrane depolarization in BMDMs treated with ATP (3 mM, 30 min), then washed out and incubated for the indicated times in the absence or presence of LPS (1 μg/ml) as indicated. […] (e) Representative histogram plot of HIF-1α staining (left) or quantification of HIF-1α mean intensity fluorescence increase (ΔMFI, right) in monocytes isolated from healthy donor blood samples and treated or not with ATP (1 mM, 30 min) in the presence or absence of AZ11645373 (10 μM) or PDTC (10 μM), and then washed and cultured for 2 h; non-stained monocytes (light grey, left). […] (g) Expression of HIF1A gene analyzed by quantitative PCR from control surgery group and septic patients PBMCs; septic patients are separated into NLRP3 non-immunocompromised (grey bar) and immunocompromised (black bar). […]

monocytes = experiment: Mitochondrial ROS production (MitoSOX) in human monocytes; type: cell-based; details: healthy donor monocytes, ATP 3 mM 30 min (FIG. 5f)

Question: What does the source list for `Nc1ncnc2c1ncn2[C@@H]1O[C@H](COP(=O)(O)OP(=O)(O)OP(=O)(O)O)[C@@H](O)[C@H]1O` [ATP, adenosine triphosphate]?
Answer: damage to the mitochondria (electron microscopy) (P2X7 receptor): no damage to the mitochondria; mitochondrial swelling (electron microscopy) (P2X7 receptor): a swelling of the mitochondria; NLRP3 inflammasome inhibition when ATP applied before LPS priming (NLRP3 inflammasome): did not present NLRP3 inflammasome inhibition; mitochondrial ROS production (monocytes): an increase in mitochondrial ROS production
